The results in this text go back to patent publication US20240366514A1, “PHARMACEUTICAL COMPOSITIONS OF OZANIMOD” (ZYDUS LIFESCIENCES LIMITED, priority 2021, published 2024).

In general, inhibition refers to the drop in the measured response relative to a control, in per cent.

In the assay the test system is TNBS induced colitis model in rat. The assay is described as follows: Pharmacodynamic (PD) study in TNBS induced colitis model in rat. The class given is in vivo, Wistar rat male. As for the experimental part: However, these differences in PK parameters were not observed in Pharmacodynamic (PD) study (Experiment 02) conducted in TNBS induced colitis model in rat. […] In this study, the efficacy parameters measured were colon weight to length ratio, colonic […] score (which includes sum of Adhesion score, Stricture score, Ulcer, Wall thickness) and Lymphocyte count. Colon weight to length ratio and macroscopic colon disease score were determined at the end of the study, whereas Lymphocyte count in circulation relative to vehicle treated TNBS challenged diseased animals (Vehicle control) was assessed 24 h after the last dose. […] The reasons for the similar efficacy response even at the differences in PK profile between both the formulations could be due to receptor saturation of S1P1 receptors overexpressed at the intestine at the dose of 1 mg/kg administered in both the treatment groups. […] The cardiac side effects such as Bradyarrhythmia and Atrioventricular Conduction Delays, which are associated with high Cmax from immediate-release formulation, get reduced or eliminated with the use of delayed-release formulation without affecting efficacy. Thus, the delayed-release formulation may also offer the skipping or reduce frequency of up-titration scheme.

As for `Nc1ccc(O)c(C(=O)O)c1` [Mesalamine], the “Lymphocyte count, % Inhibition (Mean ± SEM)” value (24 h after the last dose, relative to vehicle treated TNBS challenged animals) worked out at 13.39 ± 21.66%. For the same compound, the inhibition at 150 mg/kg (144 h, oral once a day for 6 days, IR 1 mg/kg, DR 0.89 mg/kg, Mesalamine 150 mg/kg, versus vehicle control, read-out: Colon Macroscopic Score, % Inhibition (Mean ± SEM)) was found to be 56.5 ± 5.02%. Moreover, the “Lymphocyte count (10^3/μL), Observation (Mean ± SEM)” value (circulating, 24 h after the last dose, IR 1 mg/kg, DR 0.89 mg/kg, Mesalamine 150 mg/kg oral for 6 days) is on record as 7.6 ± 1.9 10^3/μL. Moreover, the “Colon Weight to Length ratio (mg/cm), Observation (Mean ± SEM)” value (oral once a day for 6 consecutive days, IR 1 mg/kg, DR 0.89 mg/kg, Mesalamine 150 mg/kg, end of study) came out at 120.44 ± 4.22 mg/cm. Further, the “Colon Macroscopic Score [Sum of scores of Adhesion score, Stricture score, Ulcer, Wall thickness], Observation (Mean ± SEM)” value (oral once a day for 6 days, IR 1 mg/kg, DR 0.89 mg/kg, Mesalamine 150 mg/kg, end of study) amounted to 2.5 ± 0.29. Further, for the setting “oral once a day for 6 days, IR 1 mg/kg, DR 0.89 mg/kg, Mesalamine 150 mg/kg, versus vehicle control”, the “Colon Weight to Length ratio, % Inhibition (Mean ± SEM)” value stood at 41.75 ± 2.04%.
